Test results published in US20200270309A1, “MALEIMIDE GROUP-MODIFIED ANGIOGENESIS INHIBITOR HM-1 AND USE THEREOF” (NANJING ANJI BIOLOGICAL TECHNOLOGY CO., LTD, priority 2017, published 2020).
Peptide text beside a SMILES is read from it. * marks the point of attachment. X68 = O=C1C=CC(=O)N1c1ccccc1CCCCCCCCCCCC(=O)*; X72 = O=C1C=CC(=O)N1c1ccccc1CCCCCCCCCCC(=O)*; X55 = O=C1C=CC(=O)N1c1ccccc1CCCCCCCCC(=O)*

How the values were obtained:
HUVECs = test: Transwell migration inhibition on HUVECs; format: cell-based, human; details: for Inhibition rate (%): HUVEC migration vs blank control; for Cell migration number (Mean ± SD): HUVECs, transwell, 24 h
splenic lymphocytes = test: Proliferation of splenic lymphocytes in mice (ConA, MTT); format: cell-based; details: ConA-stimulated mouse splenic lymphocytes, 48 h
Procedure: Spleens of mice were taken out under aseptic conditions, washed with blank 1640 culture medium 3 times, ground with a 5 mL syringe core, filtered with a 200-mesh sieve, made into a single cell suspension. The suspension was centrifuged (1000 rpm×5 min), and supernatant was removed. Red blood cells were lysed by Tris-NH4Cl, and placed in ice water bath for 4 min and centrifuged (1000 rpm×5 min). The supernatant was removed, and the cells were washed twice with sterile PBS. Finally, RPMI 1640 culture solution (5 mL) containing 10% calf serum was added to suspend the cells. The cells were counted and the cell concentration was adjusted to 5×10^6 cells/mL, and the cells were cultured in a 96-well culture plate.
Blank control group, concanavalin A (ConA) group and dexamethasone (Dex) group were set in the experiment, and polypeptide X1-X90 groups were set as test groups. After 100 μL of splenic lymphocytes suspension per well was added into each group, 100 μL of blank 1640 culture solution was added into the blank control group, ConA was added into the ConA group, Dex was added into the Dex group, and ConA was added into the test groups on the basis of adding different concentrations of polypeptides X1-X90. The cells were static cultured at 37° C. in a cell incubator for 48 h. After the cultivation was completed, 20 μL of MTT was added to each well, and the cultivation was continued for 4 h. Finally, all the solutions in each well were discarded. 100 μL DMSO was added to each well and shaken, and the OD value at 570 nm was detected with a microplate reader. Five parallel experiments were set in each well.

[1] = tested on: IL-1β production by mouse peritoneal macrophages; test: IL-1β production by mouse peritoneal macrophages (ELISA); format: cell-based; details: for Inhibition rate: IL-1β production, vs model group; for IL-1β: mouse peritoneal macrophages, 48 h, ELISA
Procedure: Mice were injected intraperitoneally with 1 mL of broth culture medium (containing 6% of starch). Three days later, mice peritoneal macrophages were taken aseptically and washed twice with 1640 culture medium, and the cell concentration was adjusted to 2×10^6 cells/mL. The solutions were injected into 24-well culture plates at 1 mL per well. The cells were incubated in a cell incubator for 3 h and vibrated once every 30 min to make the cells fully adhere to the wall. Then, the cells were washed twice with a culture solution to remove non-adhered cells. PBS was added to the blank group, positive drug Dex was added to the positive group, no drug was added to the model group, and polypeptides X1-X90 with low, medium and high concentrations were added to the test groups; and the cells were continuously cultured for 48 h after administration, and then centrifuged at 1000 r/min for 15 min. The supernatant was collected as a sample to be tested for IL-1β activity.

[2] = tested on: collagen-induced arthritis; test: Mouse collagen-induced arthritis (CIA) animal model; format: in vivo; details: DBA/1 mice CIA model, dose 4.0 mg/kg, subcutaneous from day 30, n=10; for Clinical score: highest score 16
adjuvant arthritis = test: Rat adjuvant arthritis (AA) animal model; format: in vivo, SD rats; details: 4.0 mg/kg; for Clinical score: intravenous in the tail once every five days from day 10, four paws scored 0-4, max 16, mean±SD; for Joint swelling degree / Left and right paw swelling degree: intravenous in the tail once every five days from day 10, mean±SD
[3] = tested on: corneal neovascularization; test: Corneal neovascularization induced by alkali burn in BALB/c mice; format: in vivo; design: Inhibition rate (corneal neovascularization): concentration or dose not given beside the values; details: day 14 after alkali burn, vitreous injection once a day for 1 week
[4] = tested on: retinal vascular endothelial nuclei; test: Neovascularization in a rat model of premature retinopathy; format: in vivo, rats; details: dose 0.05 μM in the vitreous chamber from day 7 of modeling for one week; counted on day 14; oxygen-induced neonatal rats
Procedure: Using a fluctuating oxygen-induced animal model, newborn rats born naturally on the same day (within 12 h) were randomly divide into three groups: an oxygen model group, an oxygen treatment group and a normal control group. The oxygen model was further divided into three sub-group model groups, and the sub-group model groups and the treatment group were all placed in a semi-closed oxygen chamber made of organic glass; medical oxygen was introduced into the chamber, and the concentration was adjusted to 80%±2% by an oxygen meter; nitrogen was introduced into the oxygen chamber after 24 h, and the oxygen concentration was adjusted to 10%±2% rapidly and maintained for 24 h. This was repeated to keep the oxygen concentration in the oxygen chamber alternating between 80% and 10% every 24 h, the oxygen concentration was maintained for 7 d, and then the rats were fed in the air. The oxygen concentration was monitored 8 times a day, and the ambient temperature in the chamber was controlled at 23° C.±2° C. Bedding was replaced, feed was added, and water and mother rats were replaced once. The normal control group was placed in the animal room feeding environment. […] The oxygen treatment group was divided into three subgroups. On day 7 of modeling, X1-[…], […]-[…] and […]-X90 were injected in the vitreous chamber respectively, and the oxygen model group and the control group were only given normal saline for one week. On day 14, after the rats were anesthetized by diethyl ether and killed, eyeballs were extracted and fixed in 40 g/L paraformaldehyde solution for 24 h. Gradient dehydration by alcohol was performed, and the eyeballs were processed by xylene to be transparent. After waxing, the eyeballs were sectioned continuously to a thickness of 4μm, and the periphery of the optic disc should be avoided as much as possible. The sections were parallel to the sagittal plane from cornea to the optic disc. Ten sections of each eyeball were randomly taken and stained with hematoxylin eosin, the number of vascular endothelial nuclei that broke through the inner limiting membrane of the retina (only the number of vascular endothelial nuclei closely related to the inner limiting membrane were counted) was counted, and statistics of the average number of cells per section per eyeball was performed. Results: In the control group, there were no vascular endothelial nuclei that broke through the inner limiting membrane of the retina and grew into vitreous body, or the vascular endothelial nuclei were occasionally found in only a few sections. In the model group, there were many vascular endothelial nuclei that broke through the inner limiting membrane of the retina, some appeared alone, and some appeared in clusters. At the same time, on some sections, these vascular endothelial nuclei were also found adjacent to deep retinal vessels, confirming that they originated from the retina rather than the vitreous body or other ocular tissues. In the treatment group, only a few vascular endothelial nuclei that broke through the inner limiting membrane of retina could be seen in the sections.

In the case of `C[C@H](NC(=O)CNC(=O)[C@H](CCCNC(=N)N)NC(=O)CCCCCCCCCCc1ccccc1N1C(=O)C=CC1=O)C(=O)N[C@@H](CC(=O)O)C(=O)N[C@@H](CCCNC(=N)N)C(=O)N[C@@H](C)C(=O)NCC(=O)NCC(=O)NCC(=O)NCC(=O)N[C@@H](CCCNC(=N)N)C(=O)NCC(=O)N[C@@H](CC(=O)O)C(=O)O` [X22] (X72-RGADRAGGGGRGD-OH), the “Inhibition rate (%)” value (HUVECs; dose 0.05 μM) is reported as 48.22%, the “Inhibition rate (%)” value (HUVECs; dose 0.1 μM) is reported as 55.21% and the “Inhibition rate (%)” value (HUVECs; dose 0.2 μM) is reported as 57.65%. For the same compound, the “Cell migration number (Mean ± SD)” value (HUVECs; dose 0.05 μM) was 555.03 ± 66.81, the “Cell migration number (Mean ± SD)” value (HUVECs; dose 0.1 μM) was 480.13 ± 67.49 and the “Cell migration number (Mean ± SD)” value (HUVECs; dose 0.2 μM) was 453.97 ± 57.23. The “A570 nm/A630 nm” value (splenic lymphocytes; polypeptide dose 0.05 μM) was 0.5694 ± 0.0561, the “Inhibition rate (%)” value (splenic lymphocytes; polypeptide dose 0.05 μM) was 15.69% and the “A570 nm/A630 nm” value (splenic lymphocytes; polypeptide dose 0.1 μM) was 0.4603 ± 0.0873. For the same compound, the “Inhibition rate (%)” value (splenic lymphocytes; polypeptide dose 0.1 μM) was 31.85%, the “A570 nm/A630 nm” value (splenic lymphocytes; polypeptide dose 0.2 μM) was 0.4521 ± 0.1194 and the “Inhibition rate (%)” value (splenic lymphocytes; polypeptide dose 0.2 μM) was 33.06%. The Inhibition rate ([1]; dose 0.05 μM) was 29.53%, the IL-1β ([1]; dose 0.05 μM) was 663.21 ± 13.73 pg/mL and the Inhibition rate ([1]; dose 0.1 μM) was 32.31%. For the same compound, the IL-1β ([1]; dose 0.1 μM) was 637.07 ± 19.81 pg/mL, the Inhibition rate ([1]; dose 0.2 μM) was 38.53% and the IL-1β ([1]; dose 0.2 μM) was 578.51 ± 14.03 pg/mL. The “Joint swelling degree (mm)” value [2] was 0.75 ± 0.14 mm, the “Left and right paw swelling degree (mm)” value [2] was 0.83 ± 0.13 mm and the Clinical score [2] was 8.67 ± 1.32. The Clinical score (adjuvant arthritis) was 5.67 ± 1.12, the Joint swelling degree (adjuvant arthritis) was 0.83 ± 0.14 mm and the “Left and right paw swelling degree” value (adjuvant arthritis) was 3.92 ± 0.18 mm. The “Inhibition rate (corneal neovascularization)” value [3] was 46.70%, the “MVD (corneal microvessel density)” value [3] was 35.84 ± 6.594 and the “Nuclei count (retinal vascular endothelial nuclei, average per section per eyeball)” value [4] was 7.368 ± 1.842.

For `C[C@H](NC(=O)CNC(=O)[C@H](CCCNC(=N)N)NC(=O)CCCCCCCCc1ccccc1N1C(=O)C=CC1=O)C(=O)N[C@@H](CC(=O)O)C(=O)N[C@@H](CCCNC(=N)N)C(=O)N[C@@H](C)C(=O)NCC(=O)NCC(=O)NCC(=O)NCC(=O)N[C@@H](CCCNC(=N)N)C(=O)NCC(=O)N[C@@H](CC(=O)O)C(=O)O` [X20] (X55-RGADRAGGGGRGD-OH), the “Inhibition rate (%)” value (HUVECs; dose 0.05 μM) was 47.45%, the “Inhibition rate (%)” value (HUVECs; dose 0.1 μM) was 49.79% and the “Inhibition rate (%)” value (HUVECs; dose 0.2 μM) was 52.70%. The “Cell migration number (Mean ± SD)” value (HUVECs; dose 0.05 μM) was 563.29 ± 41.22, the “Cell migration number (Mean ± SD)” value (HUVECs; dose 0.1 μM) was 538.18 ± 64.13 and the “Cell migration number (Mean ± SD)” value (HUVECs; dose 0.2 μM) was 506.96 ± 57.65. For the same compound, the “A570 nm/A630 nm” value (splenic lymphocytes; polypeptide dose 0.05 μM) was 0.5977 ± 0.1129, the “Inhibition rate (%)” value (splenic lymphocytes; polypeptide dose 0.05 μM) was 11.50% and the “A570 nm/A630 nm” value (splenic lymphocytes; polypeptide dose 0.1 μM) was 0.5419 ± 0.0423. The “Inhibition rate (%)” value (splenic lymphocytes; polypeptide dose 0.1 μM) was 19.77%, the “A570 nm/A630 nm” value (splenic lymphocytes; polypeptide dose 0.2 μM) was 0.4947 ± 0.1213 and the “Inhibition rate (%)” value (splenic lymphocytes; polypeptide dose 0.2 μM) was 26.75%. The Inhibition rate ([1]; dose 0.05 μM) was 17.90%, the IL-1β ([1]; dose 0.05 μM) was 772.72 ± 18.78 pg/mL and the Inhibition rate ([1]; dose 0.1 μM) was 23.02%. For the same compound, the IL-1β ([1]; dose 0.1 μM) was 724.50 ± 12.58 pg/mL, the Inhibition rate ([1]; dose 0.2 μM) was 32.89% and the IL-1β ([1]; dose 0.2 μM) was 631.59 ± 19.52 pg/mL. For the same compound, the “Joint swelling degree (mm)” value [2] was 0.82 ± 0.17 mm, the “Left and right paw swelling degree (mm)” value [2] was 0.74 ± 0.14 mm and the Clinical score [2] was 9.07 ± 1.33. The Clinical score (adjuvant arthritis) was 5.74 ± 1.11, the Joint swelling degree (adjuvant arthritis) was 0.8 ± 0.17 mm and the “Left and right paw swelling degree” value (adjuvant arthritis) was 3.87 ± 0.95 mm. For the same compound, the “Inhibition rate (corneal neovascularization)” value [3] was 44.62%, the “MVD (corneal microvessel density)” value [3] was 37.24 ± 6.113 and the “Nuclei count (retinal vascular endothelial nuclei, average per section per eyeball)” value [4] was 9.374 ± 3.742.

`C[C@H](NC(=O)CNC(=O)[C@H](CCCNC(=N)N)NC(=O)CCCCCCCCCCCc1ccccc1N1C(=O)C=CC1=O)C(=O)N[C@@H](CC(=O)O)C(=O)N[C@@H](CCCNC(=N)N)C(=O)N[C@@H](C)C(=O)NCC(=O)NCC(=O)NCC(=O)NCC(=O)N[C@@H](CCCNC(=N)N)C(=O)NCC(=O)N[C@@H](CC(=O)O)C(=O)O` [X23] (X68-RGADRAGGGGRGD-OH) was tested, and the “Inhibition rate (%)” value (HUVECs; dose 0.05 μM) was 48.22%, the “Inhibition rate (%)” value (HUVECs; dose 0.1 μM) was 51.50% and the “Inhibition rate (%)” value (HUVECs; dose 0.2 μM) was 52.06%. For the same compound, the “A570 nm/A630 nm” value (splenic lymphocytes; polypeptide dose 0.05 μM) was 0.5946 ± 0.0378, the “Inhibition rate (%)” value (splenic lymphocytes; polypeptide dose 0.05 μM) was 11.96% and the “A570 nm/A630 nm” value (splenic lymphocytes; polypeptide dose 0.1 μM) was 0.4982 ± 0.1212. The “Inhibition rate (%)” value (splenic lymphocytes; polypeptide dose 0.1 μM) was 26.24%, the “A570 nm/A630 nm” value (splenic lymphocytes; polypeptide dose 0.2 μM) was 0.4363 ± 0.0933 and the “Inhibition rate (%)” value (splenic lymphocytes; polypeptide dose 0.2 μM) was 35.40%. It also gave an Inhibition rate ([1]; dose 0.05 μM) of 15.69%, an IL-1β ([1]; dose 0.05 μM) of 793.48 ± 19.42 pg/mL and an Inhibition rate ([1]; dose 0.1 μM) of 30.92%. For the same compound, the IL-1β ([1]; dose 0.1 μM) was 650.17 ± 14.98 pg/mL, the Inhibition rate ([1]; dose 0.2 μM) was 33.74% and the IL-1β ([1]; dose 0.2 μM) was 623.64 ± 12.33 pg/mL. The “Joint swelling degree (mm)” value [2] was 0.77 ± 0.17 mm, the “Left and right paw swelling degree (mm)” value [2] was 0.77 ± 0.15 mm and the Clinical score [2] was 9.15 ± 1.47. The “Inhibition rate (corneal neovascularization)” value [3] was 46.95%, the “MVD (corneal microvessel density)” value [3] was 35.67 ± 6.861 and the “Nuclei count (retinal vascular endothelial nuclei, average per section per eyeball)” value [4] was 8.275 ± 1.713.
